# Assay results reported in patent US5260465A, “Inhibitors of farnesyl protein transferase” (Merck & Co., Inc., priority 1991, dated 1993).
# Assays:
# Ras farnesylation = conditions: Hancock et al., Casey et al., Schafer et al.; cited from earlier work
# HMG-CoA reductase = conditions: cited from earlier work
# [1] = target: T1, Farnesyl-protein transferase (FTase) from bovine brain (Bos taurus, UniProt P29702+P49355); experiment: Inhibition of Ras farnesylation in vitro (FTase assay with Ras-CVLS and [3H]FPP); type: biochemical; conditions: for IC50: Ras-CVLS 3.5 μM, 0.25 μM [3H]FPP, partially purified enzyme, compound (9) or (10), under assay conditions open dicarboxylate form
# T1 construct: Farnesyl-protein transferase (FTase) from bovine brain was chromatographed on DEAE-Sephacel; from tissue; host or cells: bovine brain, partially purified (DEAE-Sephacel, N-octyl agarose, mono Q)
# Description: The intrinsic farnesyl-protein transferase (FTase) activity of representative compounds of this invention was measured by the assay as described below:
# Farnesyl-protein transferase (FTase) from bovine brain was chromatographed on DEAE-Sephacel (Pharmacia, 0-0.8M NaCl gradient elution), N-octyl agarose (Sigma, 0-0.6M NaCl gradient elution), and a mono Q HPLC column (Pharmacia, 0-0.3M NaCl gradient). Ras-CVLS (Cys-Val-Leu-Ser) at 3.5 μM, 0.25 μM [^3 H]FPP, and the indicated compounds were incubated with this partially purified enzyme preparation. The FTase inhibition data presented below is a measurement of the ability of the test compound to inhibit Ras farnesylation in vitro.
# [2] = pH-dependent equilibrium / solution form of anhydride (9) and diacid (10), followed by UV; type: physicochemical; conditions: for predominant form in solution (diacid/anhydride equilibrium): in a solution, pH dependent
# Text: The equilibrium between diacid (10) and anhydride (9) in a solution is pH dependent. […] However, when basified with dil NaOH, this maximum shifted to λmax 243 run. This shift is clear evidence of opening of the anhydride into the diacid. [drawing 8]
# The latter band underwent a hypsochromic shift to 240 run after addition of dil NAOH.
structure (smiles),measurement,setting,value
CC[C@H](C)C(=O)O[C@H]1C[C@@H](C)C=C2C=C[C@H](C)[C@H](CC[C@@H]3C[C@@H](O)CC(=O)O3)[C@H]21 [lovastatin],Inhibition of Ras farnesylation in vivo,Ras farnesylation,Inhibition of Ras farnesylation in vivo has been demonstrated
same,inhibition of HMG-CoA reductase,HMG-CoA reductase,inhibit HMG-CoA reductase
CCCCCCCC/C=C\CCCCCC/C(C(=O)O)=C(\C)C(=O)O [Compound (10)],IC50,[1],0.11 µM
same,Ras farnesyl transferase inhibitory activity of the diisopropylethylamine salt,[1]; open diacid (10) trapped as a diisopropylethylamine salt,without any loss of Ras farnesyl transferase inhibitory activity
same,form under assay conditions,"[2]; CH3OH-HEPES buffer solution (7:5), pH 7.5",exists substantially in the open dicarboxylate form
same,predominant form in solution (diacid/anhydride equilibrium),[2],predominates when the solution is basic
same,existence in solution by pH,[2]; in solution,exists in solution at pH 7 and above
CC[C@H](C)C(=O)O[C@H]1CCC=C2C=C[C@H](C)[C@H](CC[C@@H]3C[C@@H](O)CC(=O)O3)[C@H]21 [compactin],Inhibition of Ras farnesylation in vivo,Ras farnesylation,Inhibition of Ras farnesylation in vivo has been demonstrated
same,inhibition of HMG-CoA reductase,HMG-CoA reductase,inhibit HMG-CoA reductase
CCCCCCCC/C=C\CCCCCCC1=C(C)C(=O)OC1=O [Compound (9)],IC50,[1],0.11 µM
same,predominant form in solution (diacid/anhydride equilibrium),[2],predominates when the solution is acidic
same,reactivity with CH3OH,[2]; methanolic solution,reacts slowly with CH3 OH
